Data: patent US20190282497A1 (Bryn Pharma, LLC, priority 2018, published 2019)

System: histamine induced nasal congestion

## NCCc1c[nH]cn1 [Histamine, histamine]
Group 1, 5 and 10 minutes post-histamine exposure
  nasal congestion and flow restriction pressure: progressive increase in nasal congestion and flow restriction pressure
Pilot study, no epinephrine, 60, 80 and 100 minute time points
  histamine induced congestion without epinephrine: remains elevated at significant levels
